Values after ≈ are worked out from the molar mass of the structure shown.
Assays:
Staphylococcus aureus [1] = experiment: Antibacterial activity against Staphylococcus aureus ATCC 29213 assessed as inhibition of visible growth measured after 18 to 24 hrs by broth dilution method; assay type: functional; settings: time 18-24 hrs
Staphylococcus aureus [2] = experiment: Antibacterial activity against methicillin-resistant Staphylococcus aureus N315 assessed as inhibition of visible growth measured after 18 to 24 hrs by broth dilution method; assay type: functional; settings: time 18-24 hrs
Staphylococcus aureus [3] = experiment: Antibacterial activity against methicillin-resistant Staphylococcus aureus NCTC 10442 assessed as inhibition of visible growth measured after 18 to 24 hrs by broth dilution method; assay type: functional; settings: time 18-24 hrs
[4] = Haemolytic activity in rabbit red blood cells incubated for 60 mins by k multi-mode reader relative to control; assay type: toxicity, cell-based, Oryctolagus cuniculus, Erythrocyte; settings: for HC50 at 1 h: rabbit red blood cells
Escherichia coli = experiment: Antibacterial activity against Escherichia coli ATCC 25922 assessed as inhibition of visible growth measured after 18 to 24 hrs by broth dilution method; assay type: functional; settings: time 18-24 hrs
[5] = Selectivity ratio, HC50 for hemolytic activity in rabbit RBC to MIC for antibacterial activity against methicillin-resistant Staphylococcus aureus N315; assay type: toxicity; settings: rabbit red blood cells
[6] = Selectivity ratio, HC50 for hemolytic activity in rabbit RBC to MIC for antibacterial activity against Staphylococcus aureus ATCC 29213; assay type: toxicity; settings: rabbit red blood cells
[7] = Selectivity ratio, HC50 for hemolytic activity in rabbit RBC to MIC for antibacterial activity against methicillin-resistant Staphylococcus aureus NCTC 10442; assay type: toxicity; settings: rabbit red blood cells
Klebsiella pneumoniae [8] = experiment: Antibacterial activity against Klebsiella pneumoniae ATCC 10031 assessed as inhibition of visible growth measured after 18 to 24 hrs by broth dilution method; assay type: functional; settings: time 18-24 hrs
[9] = Selectivity ratio, HC50 for hemolytic activity in rabbit RBC to MIC for antibacterial activity against Klebsiella pneumoniae ATCC 10031; assay type: toxicity; settings: rabbit red blood cells
[10] = Selectivity ratio, HC50 for hemolytic activity in rabbit RBC to MIC for antibacterial activity against Acinetobacter baumannii ATCC 17978; assay type: toxicity; settings: rabbit red blood cells
[11] = Selectivity ratio, HC50 for hemolytic activity in rabbit RBC to MIC for antibacterial activity against Acinetobacter baumannii R2889; assay type: toxicity; settings: rabbit red blood cells
[12] = Selectivity ratio, HC50 for hemolytic activity in rabbit RBC to MIC for antibacterial activity against Klebsiella pneumoniae ATCC 14581; assay type: toxicity; settings: rabbit red blood cells
Acinetobacter baumannii [13] = experiment: Antibacterial activity against Acinetobacter baumannii R2889 assessed as inhibition of visible growth measured after 18 to 24 hrs by broth dilution method; assay type: functional; settings: time 18-24 hrs
Acinetobacter baumannii [14] = experiment: Antibacterial activity against Acinetobacter baumannii ATCC 17978 assessed as inhibition of visible growth measured after 18 to 24 hrs by broth dilution method; assay type: functional; settings: time 18-24 hrs
Klebsiella pneumoniae [15] = experiment: Antibacterial activity against Klebsiella pneumoniae ATCC 14581 assessed as inhibition of visible growth measured after 18 to 24 hrs by broth dilution method; assay type: functional; settings: time 18-24 hrs
[16] = Selectivity ratio, HC50 for hemolytic activity in rabbit RBC to MIC for antibacterial activity against Pseudomonas aeruginosa ATCC 9027; assay type: toxicity; settings: rabbit red blood cells
Staphylococcus aureus [17] = experiment: Antibacterial activity against Staphylococcus aureus ATCC 29213 assessed as reduction in bacterial load at 8 time of MIC measured after 8 hrs by time kill assay; assay type: functional

`CCCCCCCCC(=O)NCc1ccc(OCCCCN(CCCN(C)C)CCCN(C)C)c(OC)c1` gave an MIC (Staphylococcus aureus [1]) of over 50 µg/mL, an MIC (Staphylococcus aureus [2]) of over 50 µg/mL and an MIC (Staphylococcus aureus [3]) of over 50 µg/mL. The HC50 at 1 h [4] was over 200 µg/mL and the MIC (Escherichia coli) was over 50 µg/mL.

In the case of `COc1cc(CNC(=O)CCCC/C=C/C(C)C)ccc1OCCCCCCNCCN(CCNC(=N)N)CCNC(=N)N`, the MIC (Staphylococcus aureus [1]) was 6.25 µg/mL (≈ 10.1 µM), the selectivity ratio [5] was over 32 and the selectivity ratio [6] was over 32. It also gave a selectivity ratio [7] of over 32, an MIC (Staphylococcus aureus [2]) of 3.12 µg/mL (≈ 5.06 µM) and an MIC (Staphylococcus aureus [3]) of 3.12 µg/mL (≈ 5.06 µM). For the same compound, the HC50 at 1 h [4] was over 200 µg/mL and the MIC (Escherichia coli) was 50 µg/mL (≈ 80.9 µM).

Work on `CCCCCCCCC(=O)NCc1ccc(OCCCCCCN)c(OC)c1` yielded an MIC (Staphylococcus aureus [1]) of over 50 µg/mL, an MIC (Staphylococcus aureus [2]) of over 50 µg/mL and an MIC (Staphylococcus aureus [3]) of over 50 µg/mL. For the same compound, the HC50 at 1 h [4] was over 200 µg/mL and the MIC (Escherichia coli) was over 50 µg/mL.

Work on `CCCCCCCCC(=O)NCc1ccc(OCCCCNC(=N)N)c(OCCCCNC(=N)N)c1` yielded an MIC (Staphylococcus aureus [1]) of 6.25 µg/mL (≈ 12.4 µM), a selectivity ratio [5] of over 32 and a selectivity ratio [6] of over 32. The selectivity ratio [7] was over 32, the MIC (Staphylococcus aureus [2]) was 3.12 µg/mL (≈ 6.18 µM) and the MIC (Staphylococcus aureus [3]) was 3.12 µg/mL (≈ 6.18 µM). The HC50 at 1 h [4] was over 200 µg/mL and the MIC (Escherichia coli) was 50 µg/mL (≈ 98.9 µM).

With `CCCCCCCCC(=O)NCc1ccc(OCCCCCNC(=N)N)c(OC)c1` the MIC (Staphylococcus aureus [1]) was 6.25 µg/mL (≈ 14.9 µM), the selectivity ratio [5] was over 32 and the selectivity ratio [6] was over 32. It also gave a selectivity ratio [7] of over 32, an MIC (Staphylococcus aureus [2]) of 6.25 µg/mL (≈ 14.9 µM) and an MIC (Staphylococcus aureus [3]) of 6.25 µg/mL (≈ 14.9 µM). It also gave an HC50 at 1 h [4] of over 200 µg/mL and an MIC (Escherichia coli) of 50 µg/mL (≈ 119 µM).

Compound `CCCCCCCCC(=O)NCc1ccc(OCCCCCCCCNC(=N)N)c(OC)c1` has an MIC (Staphylococcus aureus [1]) of 1.56 µg/mL (≈ 3.37 µM), a selectivity ratio [5] of over 128 and a selectivity ratio [6] of over 128. It also gave a selectivity ratio [7] of over 128, an MIC (Staphylococcus aureus [2]) of 1.56 µg/mL (≈ 3.37 µM) and an MIC (Staphylococcus aureus [3]) of 1.56 µg/mL (≈ 3.37 µM). For the same compound, the HC50 at 1 h [4] was over 200 µg/mL and the MIC (Escherichia coli) was over 50 µg/mL.

`CCCCCCCCC(=O)NCc1ccc(OCC(=O)N[C@@H](CCCNC(=N)N)C(=O)N[C@@H](CCCNC(=N)N)C(=O)N[C@@H](CCCNC(=N)N)C(=O)OC)c(OC)c1` showed an MIC (Staphylococcus aureus [1]) of over 50 µg/mL, an MIC (Staphylococcus aureus [2]) of over 50 µg/mL and an MIC (Staphylococcus aureus [3]) of 50 µg/mL (≈ 59.9 µM). For the same compound, the HC50 at 1 h [4] was over 200 µg/mL and the MIC (Escherichia coli) was over 50 µg/mL.

`CCCCCCCCC(=O)NCc1ccc(OCC(=O)N[C@@H](CCCNC(=N)N)C(=O)OC)c(OC)c1` gave an MIC (Staphylococcus aureus [1]) of 25 µg/mL (≈ 47.9 µM), a selectivity ratio [5] of over 4 and a selectivity ratio [6] of over 4. For the same compound, the selectivity ratio [7] was over 4, the MIC (Staphylococcus aureus [2]) was 50 µg/mL (≈ 95.8 µM) and the MIC (Staphylococcus aureus [3]) was 25 µg/mL (≈ 47.9 µM). It also gave an HC50 at 1 h [4] of over 200 µg/mL and an MIC (Escherichia coli) of over 50 µg/mL.

`CC[C@H](C)[C@H](NC(=O)CN)C(=O)NCC(=O)N[C@@H](C)C(=O)N[C@H](C(=O)N[C@@H](CC(C)C)C(=O)N[C@@H](CCCCN)C(=O)N[C@H](C(=O)N[C@@H](CC(C)C)C(=O)N[C@H](C(=O)N[C@H](C(=O)NCC(=O)N[C@@H](CC(C)C)C(=O)N1CCC[C@H]1C(=O)N[C@@H](C)C(=O)N[C@@H](CC(C)C)C(=O)N[C@H](C(=O)N[C@@H](CO)C(=O)N[C@@H](Cc1c[nH]c2ccccc12)C(=O)N[C@H](C(=O)N[C@@H](CCCCN)C(=O)N[C@@H](CCCNC(=N)N)C(=O)N[C@@H](CCCCN)C(=O)N[C@@H](CCCNC(=N)N)C(=O)N[C@@H](CCC(N)=O)C(=O)N[C@@H](CCC(N)=O)C(N)=O)[C@@H](C)CC)[C@@H](C)CC)[C@@H](C)O)[C@@H](C)O)C(C)C)C(C)C` [MELITTIN] gave an MIC (Klebsiella pneumoniae [8]) of 6.25 µg/mL (≈ 2.2 µM), a selectivity ratio [5] of 6.1 and a selectivity ratio [9] of 3.1. The selectivity ratio [6] was 6.1, the selectivity ratio [7] was 6.1 and the selectivity ratio [10] was 3.1. It also gave a selectivity ratio [11] of 3.1, a selectivity ratio [12] of 3.1 and an MIC (Acinetobacter baumannii [13]) of 3.12 µg/mL (≈ 1.1 µM). It also gave an HC5 ([4]; erythrocyte, 1 h) of 5.4 µg/mL, an MIC (Acinetobacter baumannii [14]) of 3.12 µg/mL (≈ 1.1 µM) and an MIC (Klebsiella pneumoniae [15]) of 6.25 µg/mL (≈ 2.2 µM). It also gave a selectivity ratio [16] of 3.1.

`CN[C@H](CC(C)C)C(=O)N[C@H]1C(=O)N[C@@H](CC(N)=O)C(=O)N[C@H]2C(=O)N[C@H]3C(=O)N[C@H](C(=O)N[C@H](C(=O)O)c4cc(O)cc(O)c4-c4cc3ccc4O)[C@H](O)c3ccc(c(Cl)c3)Oc3cc2cc(c3O[C@@H]2O[C@H](CO)[C@@H](O)[C@H](O)[C@H]2O[C@H]2C[C@](C)(N)[C@H](O)[C@H](C)O2)Oc2ccc(cc2Cl)[C@H]1O` [VANCOMYCIN] gave an MIC (Staphylococcus aureus [1]) of 1.56 µg/mL (≈ 1.08 µM), an MIC (Staphylococcus aureus [2]) of 0.78 µg/mL (≈ 0.538 µM) and an MIC (Staphylococcus aureus [3]) of 0.78 µg/mL (≈ 0.538 µM). It also gave an MIC (Escherichia coli) of over 50 µg/mL and an Activity (Staphylococcus aureus [17]) of 2.44 log10CFU/ml.

For `CCCCCCCCC(=O)NCc1ccc(OCCCCCCNCCN(CCN)CCN)c(OC)c1`, the MIC (Staphylococcus aureus [1]) was 3.12 µg/mL (≈ 5.99 µM), the selectivity ratio [5] was over 64 and the selectivity ratio [6] was over 64. The selectivity ratio [7] was over 64, the MIC (Staphylococcus aureus [2]) was 3.12 µg/mL (≈ 5.99 µM) and the MIC (Staphylococcus aureus [3]) was 3.12 µg/mL (≈ 5.99 µM). It also gave an HC50 at 1 h [4] of over 200 µg/mL and an MIC (Escherichia coli) of over 50 µg/mL.

Work on `COc1cc(CNC(=O)CCCC/C=C/C(C)C)ccc1OCCCCCCNC(=N)N` yielded an MIC (Staphylococcus aureus [1]) of 6.25 µg/mL (≈ 14 µM), a selectivity ratio [5] of over 32 and a selectivity ratio [6] of over 32. It also gave a selectivity ratio [7] of over 32, an MIC (Staphylococcus aureus [2]) of 3.12 µg/mL (≈ 7 µM) and an MIC (Staphylococcus aureus [3]) of 3.12 µg/mL (≈ 7 µM). For the same compound, the HC50 at 1 h [4] was over 200 µg/mL and the MIC (Escherichia coli) was over 50 µg/mL.

In the case of `CCCCCCCCC(=O)NCc1ccc(OCCCCN(CC)CC)c(OC)c1`, the MIC (Staphylococcus aureus [1]) was over 50 µg/mL, the MIC (Staphylococcus aureus [2]) was over 50 µg/mL and the MIC (Staphylococcus aureus [3]) was over 50 µg/mL. The HC50 at 1 h [4] was over 200 µg/mL and the MIC (Escherichia coli) was over 50 µg/mL.

`CCCCCCCCC(=O)NCc1ccc(OCCCNC(=N)N)c(OC)c1` showed an MIC (Staphylococcus aureus [1]) of 25 µg/mL (≈ 63.7 µM), a selectivity ratio [5] of over 8 and a selectivity ratio [6] of over 8. The selectivity ratio [7] was over 8, the MIC (Staphylococcus aureus [2]) was 12.5 µg/mL (≈ 31.8 µM) and the MIC (Staphylococcus aureus [3]) was 12.5 µg/mL (≈ 31.8 µM). The HC50 at 1 h [4] was over 200 µg/mL and the MIC (Escherichia coli) was over 50 µg/mL.

— ChEMBL document CHEMBL5236632, “Membrane-Active Nonivamide Derivatives as Effective Broad-Spectrum Antimicrobials: Rational Design, Synthesis, and Biological Evaluation” (J Med Chem, 2022)
